The record followed here is patent publication US12466818B2, “Thienyl-aniline compounds for treatment of dermal disorders” (NFlection Therapeutics, Inc., priority 2018, dated 2025).

One series deals with A375 cells. Nature of the series: Assay 2: A375 (BRAF) GI50 cell-based assay (Cell Titer-Glo). Conditions: Homo sapiens, A-375, 72 hours. The protocol:
(§1) Alternatively, the following procedure can be used to measure cell-based activity. Test compounds were dissolved in DMSO in 10 mM stock. Cell Titer-Glo® 2.0 Luminescent cell viability assay reagent was purchased from Promega (Madison, WI). A375 and HCT116 cell lines were purchased from American Type Culture Collection (Manassas, VA). For A375 cells, cell culture media was DMEM+10% FBS. For HCT116 cells, cell culture media was McCoy's 5A+10% FBS. All media were supplemented with 100 μg/mL of penicillin, and 100 μg/mL of streptomycin. Cultures were maintained at 37° C. in a humidified atmosphere of 5% CO2 and 95% air.
(§2) Test compounds were diluted in DMSO solution with 10-dose and 3-fold dilutions in a source plate starting at 10 mM. 25 nL of each test compound was delivered from the source plate to each well of the 384-well cell culture plates (T=Final) by Echo 550. 25 μL of culture medium containing 2000 of A375 or HCT116 cells was added to each of the wells in duplicates of the cell culture plates (T=0 and T=Final). 25 μL of Cell Titer Glo 2.0 reagent was added to each well of cell culture plate (T=0). The contents were mixed on an orbital shaker for 2 min and incubated at room temperature for 15 min to stabilize luminescent signal. Luminescence was recorded by Envision 2104 Multilabel Reader (PerkinElmer, Santa Clara, CA). The number of viable cells in culture was determined based on quantitation of the ATP present in each culture well. The cells in cell culture plate (T=Final) were incubated with the compounds at 37° C., 5% CO2 for 72 hours. 25 μL of Cell Titer Glo 2.0 reagent was added to each well. The contents were mixed on an orbital shaker for 2 min and incubated at room temperature for 15 min to stabilize luminescent signal. Luminescence was recorded by Envision 2104 Multilabel Reader (PerkinElmer, Santa Clara, CA). The number of viable cells in culture was determined based on quantitation of the ATP present in each culture well. The GI50 curves were plotted using the GraphPad Prism 4 program based on a sigmoidal dose-response equation Y=Bottom+(Top-Bottom)/(1+10^((Log EC50−X)*HillSlope)). All parameters in the equation were calculated by GraphPad Prism 4 program. […] Accordingly, GI50 is the value of 10^X, where X was calculated by the Curve Fitting Equation when Y=50 using Excel.
Assay 2 is the A375 (BRAF) GI50 (nM) cell-based assay as described in Example 39. A2 indicates an IC50 of less than or equal to 1 μM, and B2 indicates an IC50 of greater than 1 μM and less than or equal to 2 μM.

A short description of series [1]: Assay 5: skin S9 half-life stability assay. As to conditions: skin S9 fraction, pH 7.4; human skin S9, 1 μM test compound, NADPH. It counts as in vitro ADME. The protocol:
(§3) Compounds can be assessed for metabolic stability in human skin by assessing their rate of disappearance from human S9 skin fraction. Similarly, compounds can be assessed for metabolic stability in human liver by assessing their rate of disappearance from human S9 liver fraction. The protocol below is used to assess the difference between skin and hepatic metabolism.
(§4) The assay was carried out in 96-well microtiter plates at 37° C. Reaction mixtures (25 μL) contained a final concentration of 1 μM test compound, 2 mg/mL liver or skin protein, and 1 mM NADPH in buffer (100 mM potassium phosphate, pH 7.4 buffer with 1 mM EDTA, 3 mM MgCl2). At each of the time points (0, 15, 30, and 60 minutes), 150 μL, of quench solution (100% acetonitrile with 0.1% formic acid) with internal standard was transferred to each well. […]
(§5) All samples were analyzed on LC/MS/MS using an AB Sciex API 4000 instrument, coupled to a Shimadzu LC-20AD LC Pump system. […]
(§6) The extent of metabolism was calculated as the disappearance of the test compound, compared to the 0-min control reaction incubations. Initial rates were calculated for the compound concentration and used to determine tin values and subsequently, the intrinsic clearance, CLint=(0.693)(1/t1/2 (min)) (mL incubation/mg of S9 protein). […]

Another series has as its system HCT116 cells. Nature of the series: Assay 3: HCT116 (Kras) GI50 assay (Cell Titer-Glo). It counts as cell-based. As to conditions: Homo sapiens, HCT-116, 72 hours. The protocol:
as §1, §2
Assay 3 is the HCT116 (Kras) GI50 (nM) assay as described in Example 39. A3 indicates an IC50 of less than or equal to 5 μM, and B3 indicates an IC50 of greater than 5 μM and less than or equal to 10 μM.
A general note: Cellular ATP, detected with luciferase, serves as a proxy for viable cell number.

A short description of series [2]: Assay 4: liver S9 half-life stability assay. It counts as in vitro ADME. As to conditions: liver S9 fraction, pH 7.4; human liver S9, 1 μM test compound, NADPH. On the procedure:
as §3, §4, §5, §6

Series [3] is described as follows: Assay 6: liver microsomes half-life stability assay. It counts as in vitro ADME. As to conditions: pH 7.4; human liver microsomes, 1 μM test compound, NADPH. On the procedure: Metabolic stability of testing compound can be evaluated using human liver microsomes to predict intrinsic clearance. Human liver microsomes are obtained from Corning Gentest.
The assay was carried out in 96-well microtiter plates at 37° C. Reaction mixtures (25 μL) contain a final concentration of 1 μM test compound, 0.5 mg/mL liver microsomes protein, and 1 mM NADPH in buffer (100 mM potassium phosphate, pH 7.4 buffer with 3 mM MgCl2). At each of the time points (0, 15, 30, and 60 minutes), 150 μL of quench solution (100% acetonitrile with 0.1% formic acid) with internal standard was transferred to each well. Verapamil was included as a positive control to verify assay performance. Plates were sealed and centrifuged at 4° C. for 15 minutes at 4000 rpm. The supernatant was transferred to fresh plates for LC/MS/MS analysis.
as §5
The extent of metabolism was calculated as the disappearance of the test compound, compared to the 0-min time incubation. Initial rates were calculated for the compound concentration and used to determine t1/2 values and subsequently, the intrinsic clearance, CLint=(0.693)(1/t1/2 (min))(g of liver/kg of body weight)(mL incubation/mg of microsomal protein)(45 mg of microsomal protein/g of liver weight). […]

The target in the next series is MEK1 (Homo sapiens (Human), UniProt Q02750). Nature of the series: MEK Inhibition Assay-2 (Z'-LYTE biochemical assay). As to conditions: Z'-LYTE assay of Example 37; read-out: IC50 against MEK1. The protocol:
MEK1 inhibitory activity of compounds were tested using the following procedure (protocol available at thermofisher.com/content/dam/LifeTech/migration/files/drug-discovery/pdfs.par.60256.file.dat/20130430%20ssbk %20customer %20protocol %20 and %20assa y %20conditions.pdf). The Z′-LYTE biochemical assay (ThermoFisher) employs a fluorescence-based, coupled-enzyme format and is based on the differential sensitivity of phosphorylated and non-phosphorylated peptides to proteolytic cleavage.
Test compounds in 100% DMSO were screened in 1% DMSO (final) in the well. For 10 point titrations, 3-fold serial dilutions are conducted from the starting concentration of 30 μM.
After the 1 hour incubation, 5 μL of a 1:1024 dilution of Development Reagent A (available from Invitrogen, catalog no. PV3295) was added.
ATP solutions were diluted to a 4× working concentration in Kinase Buffer (50 mM HEPES pH 7.5, 0.01% BRIJ-35, 10 mM MgCl2, 1 mM EGTA). ATP Km apparent was previously determined using a Z′-LYTE assay. The Development Reagent was diluted in Development Buffer (available from Invitrogen, catalog no. P3127).
Assay Protocol: 2.5 μL of 4× test compound or 100 nL of 100× Test Compound plus 2.4 μL Kinase Buffer, 5 μL of the 2× Peptide/Kinase Mixture, 2.5 μL of 4×ATP Solution were added to the plates and placed on a shake plate for 30-seconds. The kinase reaction was allowed to proceed for 60-minute at room temperature, before 5 μL of Development Reagent Solution was added, and the mixture agitated for 30-seconds on a shake plate. The mixture was incubated for 60-minute at room temperature. Fluorescence was measured using a plate reader and the data were analyzed.
This control yielded 100% cleaved peptide in the Development Reaction. The 100% Phosphorylation Control, which consisted of a synthetically phosphorylated peptide of the same sequence as the peptide substrate, was designed to allow for the calculation of percent phosphorylation. This control yielded a very low percentage of cleaved peptide in the Development Reaction. The 0% Phosphorylation and 100% Phosphorylation Controls allow for the calculation of the percent phosphorylation achieved in a specific reaction well.
The minimum emission ratio in a screen was established by the 0% Inhibition Control, which contained active kinase. This control was designed to produce a 10-50% phosphorylated peptide in the Kinase Reaction. Cascade assays may produce up to 70% phosphorylated peptide.
A known inhibitor control standard curve, 10 point titration, was run for each individual kinase on the same plate as the kinase to ensure the kinase was inhibited within an expected IC50 range previously determined.
The following controls are prepared for each concentration of Test Compound assayed. […] The expected value for a non-interfering compound should be 100%. Any value outside of 90% to 110% was flagged. […] The expected value for a non-fluorescence compound should be 0%. Any value>20% was flagged.
The data in Table A was calculated. XLfit from IDBS was used. The dose response curve was curve fit to model number 205 (sigmoidal dose-response model).
Table 3 lists the MEK1 inhibition assay results of selected compounds according to the above procedure.

Where a name gives a salt, the structure may show the parent alone.

The GI50 is the concentration at which growth is held to half of that of the control. Read a high GI50 as lower sensitivity of the cells. As a reminder, the half-life is the time needed for the level to fall by half in the phase considered. Lower therefore signals fast loss. For orientation: IC50 means the midpoint of a concentration-inhibition curve.

MEK1, sequence (Q02750 whole entry): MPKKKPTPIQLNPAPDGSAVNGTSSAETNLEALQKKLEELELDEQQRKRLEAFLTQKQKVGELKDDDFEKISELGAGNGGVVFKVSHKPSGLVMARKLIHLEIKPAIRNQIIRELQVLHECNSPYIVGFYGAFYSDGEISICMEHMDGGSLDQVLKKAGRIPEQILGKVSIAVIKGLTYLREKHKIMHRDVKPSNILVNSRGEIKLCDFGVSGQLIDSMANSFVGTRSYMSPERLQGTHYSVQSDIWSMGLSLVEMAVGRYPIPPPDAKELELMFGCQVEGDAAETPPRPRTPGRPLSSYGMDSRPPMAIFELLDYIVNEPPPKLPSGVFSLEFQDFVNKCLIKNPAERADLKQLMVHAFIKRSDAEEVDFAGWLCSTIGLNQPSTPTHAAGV

As to `CC(=O)c1sc(Nc2ccc(I)cc2F)c(C(=O)NOCCO)c1C` [Compound 1.013, 5-Acetyl-2-((2-fluoro-4-iodophenyl)amino)-N-(2-hydroxyethoxy)-4-methylthiophene-3-carboxamide], the figures for the GI50 with A375 cells and with HCT116 cells were ≤ 1000 nM and ≤ 5000 nM, respectively. In addition, the half-life at 1 μM is ≥ 400 min in series [1], ≤ 50 min in series [2] and ≤ 50 min in series [3].

In the case of `CC(=O)c1sc(Nc2ccc(I)cc2F)c(C(=O)N[C@@H]2CCCNC2)c1C` [Compound 1.016, (R)-5-acetyl-2-((2-fluoro-4-iodophenyl)amino)-4-methyl-N-(piperidin-3-yl)thiophene-3-carboxamide], the results for the GI50 with A375 cells and in the series on HCT116 cells were 1000 to 2000 nM and ≤ 5000 nM, respectively.

On to `CC(=O)c1sc(Nc2ccc(I)cc2F)c(C(=O)N[C@@H]2CCNC2)c1C` [Compound 1.017, (R)-5-acetyl-2-((2-fluoro-4-iodophenyl)amino)-4-methyl-N-(pyrrolidin-3-yl)thiophene-3-carboxamide], for which the GI50 with A375 cells was 1000 to 2000 nM; in the series on HCT116 cells, ≤ 5000 nM.

As for `CC(=O)c1sc(Nc2ccc(I)cc2F)c(C(=O)NCC(C)(C)N)c1C` [Compound 1.020], the GI50 with A375 cells was ≤ 1000 nM; in the series with HCT116 cells, 5000 to 10000 nM.

With `CC(=O)c1sc(Nc2ccc(I)cc2F)c(C(=O)NOCC2CC2)c1C` [Compound 1.023], the GI50 with A375 cells is ≤ 1000 nM; with HCT116 cells, 5000 to 10000 nM.

Consider `O=C1CCCc2c1sc(Nc1ccc(I)cc1F)c2C(=O)NOC[C@H](O)CO` [Compound 1.030, (R)—N-(2,3-Dihydroxypropoxy)-2-((2-fluoro-4-iodophenyl)amino)-7-oxo-4,5,6,7-tetrahydrobenzo[b]thiophene-3-carboxamide], for which the IC50 on MEK1 is ≤ 150 nM.

Regarding `O=C1CCCc2c1sc(Nc1ccc(I)cc1F)c2C(=O)NOCC1CC1` [Compound 1.032, N-(Cyclopropylmethoxy)-2-((2-fluoro-4-iodophenyl)amino)-7-oxo-4,5,6,7-tetrahydrobenzo[b]thiophene-3-carboxamide], the GI50 is ≤ 1000 nM in the series with A375 cells and ≤ 5000 nM in the series on HCT116 cells. Also, the IC50 on MEK1 is ≤ 150 nM.

On to `NCCONC(=O)c1c(Nc2ccc(I)cc2F)sc2c1CCCC2=O` [Compound 1.033, N-(2-Aminoethoxy)-2-(2-fluoro-4-iodophenylamino)-7-oxo-4,5,6,7-tetrahydrobenzo[b]thiophene-3-carboxamide hydrochloride], for which the IC50 at MEK1 was ≤ 150 nM.

For `O=C1CCCc2c1sc(Nc1ccc(I)cc1F)c2C(=O)NC[C@H](O)CO` [Compound 1.034, (S)—N-(2,3-dihydroxypropyl)-2-((2-fluoro-4-iodophenyl)amino)-7-oxo-4,5,6,7-tetrahydrobenzo[b]thiophene-3-carboxamide], on MEK1, the IC50 is ≤ 150 nM.

`O=C1CCCc2c1sc(Nc1ccc(I)cc1F)c2C(=O)NC[C@@H](O)CO` [Compound 1.035, (R)—N-(2,3-dihydroxypropyl)-2-((2-fluoro-4-iodophenyl)amino)-7-oxo-4,5,6,7-tetrahydrobenzo[b]thiophene-3-carboxamide]: on MEK1, the IC50 was ≤ 150 nM.
